From EP1149079B1, “TETRAHYDRO ISOQUINO LINEALKANOL DERIVATIVES AND PHARMACEUTICAL COMPOSITIONS CONTAINING SAME” (SK Corporation, priority 1999, dated 2000)

Tests used:
mice [1] = test: Head-twitch test (5-HTP-induced head-twitch response); type: in vivo; conditions: oral, head twitches counted in a 2-minute period 30 min after 5-HTP 100 mg/kg ip, versus vehicle control
Description: The head-twitch response of mice is initiated by a variety of 5-HT mimetic drugs. The test was conducted in a manner similar to the procedure described by Heal, D.J., Philpot, J, O'Shaughnessy, K.M. and Davies, C.L.: The influence of central noradrenergic function on 5-HT-mediated head-twitch responses in mice: Possible implications for the actions of antidepressant drugs. Psychopharmacology 89: 414-420, 1986,
The head-twitch consisted of a characteristic rotation of the head, neck and shoulders of the mice. The test drug or vehicle was given by oral gavage. Thirty minutes later all animals were pretreated with carbidopa (25 mg/kg ip). Fifteen minutes following carbidopa administration, the mice were injected with 100 mg/kg ip of L-5-hydroxytryptophan (5-HTP). The animals were then left for 30 minutes before measurement of the head-twitch response in the following 2-minute period. For calculation of percent (%) response increase, the difference in drug head twitch number versus the control vehicle head twitch number is divided by the control head twitch and multiplied by 100.

MAO-A = target: T1, MAO-A (Rattus norvegicus, UniProt P21396); test: MAO-A inhibiting activity in vitro, radioisotopic assay with [14C] serotonin; type: biochemical; conditions: Rat liver mitochondrial membranes, 300 nM deprenyl to block MAO-B, preincubation 60 minutes at 37°C
T1 construct: Rat liver mitochondrial membranes as the source of the enzyme; from tissue; host or cells: rat liver mitochondrial membranes
T1 sequence (P21396 1-526): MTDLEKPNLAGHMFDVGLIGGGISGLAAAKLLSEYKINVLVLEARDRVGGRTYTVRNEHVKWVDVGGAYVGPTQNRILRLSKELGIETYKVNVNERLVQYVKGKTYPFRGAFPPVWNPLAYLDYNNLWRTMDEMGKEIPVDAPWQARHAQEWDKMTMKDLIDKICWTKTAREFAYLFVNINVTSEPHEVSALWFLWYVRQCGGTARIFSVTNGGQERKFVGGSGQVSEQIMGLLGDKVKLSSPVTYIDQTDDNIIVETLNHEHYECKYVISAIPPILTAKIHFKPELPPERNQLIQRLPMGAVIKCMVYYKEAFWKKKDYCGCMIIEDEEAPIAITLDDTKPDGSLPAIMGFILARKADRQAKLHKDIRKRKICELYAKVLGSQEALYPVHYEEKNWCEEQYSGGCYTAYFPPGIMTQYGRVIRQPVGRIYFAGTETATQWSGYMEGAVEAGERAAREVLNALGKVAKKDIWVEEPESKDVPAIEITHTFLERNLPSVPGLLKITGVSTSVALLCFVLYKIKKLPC
Description: The MAO-A activities in vitro were measured using Rat liver mitochondrial membranes as the source of the enzyme, according to modified method of S. Otsuka & Y. Kobayashi. A Radioisotopic Assay for Monoamine Oxidase Determinations in Human Plasma. Biochem. Pharmacol. 13: 995-1006 (1964)
Rat liver mitochondrial membranes is preincubated with drug or vehicle, and subtype selective blocker (300 nM deprenyl to block the B type of MAO) for 60 minutes at 37°C in 100 mM KPO4 (pH 7.2). [^14C] Serotonin ([…]) is then added and incubated for 10 minutes. The reaction is stopped by the addition of 0.5 ml of 2M citric acid. Radioactive product is extracted into a toluene/ethyl acetate fluor and compared to control values by scintillation spectrophotometry in order to ascertain any interactions of test compounds with MAO-A.

Rats = test: Behavior Despair (Forced Swimming) test, rats dosed po; type: in vivo; conditions: reduction in immobility time versus vehicle; dose 60 mg/kg (po); one hour after dosing; 4-minute test period
Description: (§1) Behavior Despair (Forced Swimming) test, a well known pharmacological screening method for depression, was conducted similar to the test described by Porsolt, R.D., Bertin, A. and Jalfre, M.: Behavior despair in mice: A preliminary screening test for antidepressants. Arch. Int. Pharmacodyn. Ther. 229: 327-336, 1977.
Rats were pre-swam for 10 minute the day before the test in 4000 mL glass cylinders containing water at 25°C. On the following day, rats were dosed orally (po) with either test compound or vehicle. One hour later each animal was placed in the glass cylinder and, following a 2-minute pretest, immobility was recorded for a 4-minute test period. For calculation of percent (%) reduction in immobility time, the difference in immobility time for control vehicle versus the drug is divided by the immobility time of the control vehicle and multiplied by 100.

mice [2] = test: Behavior Despair (Forced Swimming) test, mice dosed ip; type: in vivo; conditions: reduction in immobility time versus vehicle; dose 30 mg/kg (ip); one hour after dosing; 15-minute test period
Description: as §1
Mice were dosed intraperitoneally (ip) with either test compound or vehicle. One hour later each animal was placed in a 1500 mL glass beaker containing water at room temperature. Mice were kept in the water for a period of 15 minutes and the duration of immobility observed within the 15-minute test period was recorded. A mouse was judged to be immobile if it floated motionlessly in the water making only those movements necessary to keep its head above the water. For calculation of percent (%) reduction in immobility time, the difference in immobility time for control vehicle versus the drug is divided by the immobility time of the control vehicle and multiplied by 100.

Compound: NC(=O)OCC1Cc2ccccc2CN1 (racemic) [Example 5, (RS)-3-Carbamoyloxymethyl-1,2,3,4-tetrahydroisoquinoline]
- % Response Increase (mice [1]; dose 3 mg/kg): 144%

Compound: NC(=O)OC[C@@H]1Cc2ccccc2CN1 [Example 3, (S)-3-Carbamoyloxymethyl-1,2,3,4-tetrahydroisoquinoline]
- inhibition at 10 µM (MAO-A): 97.7%
- % Reduction (Rats): 83%
- % Response Increase (mice [1]; dose 1 mg/kg): 238%

Compound: NC(=O)OC[C@H]1Cc2ccccc2CN1 [Example 4, (R)-3-Carbamoyloxymethyl-1,2,3,4-tetrahydroisoquinoline]
- inhibition at 10 µM (MAO-A): 63.9%
- % Response Increase (mice [1]; dose 15 mg/kg): 258%

Compound: CN1Cc2ccccc2C[C@H]1COC(N)=O [Example 8, (S)-3-Carbamoyloxymethyl-N-methyl-1,2,3,4-tetrahydroisoquinoline]
- % Response Increase (mice [1]; dose 1 mg/kg): 77%

Compound: NC(=S)OCC1Cc2ccccc2CN1 (centres unmarked) [Example 14, 3-Thiocarbamoyloxymethyl-1,2,3,4-tetrahydroisoquinoline]
- % Response Increase (mice [1]; dose 8 mg/kg): 42%

Compound: CNC(=S)OC[C@@H]1Cc2ccccc2CN1 [Example 16, (S)-3-(N-Methylthiocarbamoyloxymethyl)-1,2,3,4-tetrahydroisoquinoline]
- % Reduction (mice [2]): 56%

Compound: CNC(=S)OC[C@@H]1Cc2ccccc2CN1C(=O)Nc1ccccc1 [Example 17, (S)-3-(N-Methyl-thiocarbamoyloxymethyl)-N-(anilinocarbonyl)-1,2,3,4-tetrahydroisoquinoline]
- % Reduction (mice [2]): 46%

Compound: CNC(=S)OC[C@@H]1Cc2ccccc2CN1C [Example 18, (S)-3-(N-Methylthiocarbamoyloxymethyl)-N-methyl-1,2,3,4-tetrahydroisoquinoline]
- % Reduction (mice [2]): 33%
